We go through four molecules from PMC7253369, “Cellular and Structural Basis of Synthesis of the Unique Intermediate Dehydro-F420-0 in Mycobacteria” (mSystems, 2020).

The target of data set [1] is T1, FbiA (Mycolicibacterium smegmatis, UniProt A0QTG2).
T1 construct: expressed in M. smegmatis mc^2155 (homologous host); homodimer
T1 sequence (A0QTG2 1-327): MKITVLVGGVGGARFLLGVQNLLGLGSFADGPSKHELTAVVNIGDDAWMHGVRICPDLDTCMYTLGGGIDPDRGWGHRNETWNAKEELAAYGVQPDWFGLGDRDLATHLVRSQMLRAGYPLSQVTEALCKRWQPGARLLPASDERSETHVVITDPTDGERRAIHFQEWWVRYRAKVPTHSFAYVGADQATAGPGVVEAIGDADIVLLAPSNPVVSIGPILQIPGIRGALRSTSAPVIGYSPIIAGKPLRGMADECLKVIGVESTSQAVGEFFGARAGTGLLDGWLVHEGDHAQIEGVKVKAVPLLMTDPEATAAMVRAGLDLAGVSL
The data set is described as follows: X-ray crystal structure, crystal soaking; co-purification with LC-MS. The format is binding. Particulars: pH 8.5, 20% glycerol; no metal seen; active site of Mol. B; carbonyl part poorly resolved.

The target in data set [2] is T1, FbiA. The data set is described as follows: X-ray crystal structure, crystal soaking. The format is binding. Particulars: pH 8.5, 20% glycerol.
Data set [3] deals with the molecule itself. As to the kind of experiment: SEC-MALS; Superdex S200 Increase 10/300 in 200 mM NaCl, 50 mM Tris pH 7.9; purified FbiA; MALS detection (Wyatt). (Size exclusion chromatography separates by hydrodynamic size, large species first.)

`C=C(OP(=O)(O)OC[C@@H](O)[C@@H](O)[C@@H](O)Cn1c2nc(=O)[nH]c(=O)c-2cc2ccc(O)cc21)C(=O)O` [DH-F420-0]: the “X-ray crystal structure, crystal soaking; co-purification with LC-MS” value at FbiA [1] was “FbiA plus DH-F420-0, 6UW7”.
In the case of `Nc1nc2c(ncn2[C@@H]2O[C@H](COP(=O)(O)OP(=O)(O)O)[C@@H](O)[C@H]2O)c(=O)[nH]1` [GDP], at FbiA [2] (GDP alone and with Fo, active-site Ca2+ in Mol. B, in place of unstable EPPG), the “X-ray crystal structure, crystal soaking” value is on record as “FbiA plus GDP, 6UW3; FbiA plus GDP plus Fo, 6UW5”.
Take `O=c1nc2n(C[C@H](O)[C@H](O)[C@H](O)CO)c3cc(O)ccc3cc-2c(=O)[nH]1` [Fo]: the “X-ray crystal structure, crystal soaking” value at FbiA [2] (Fo alone (no metal seen) and with GDP and Ca2+, active site of Mol. B) is on record as “FbiA plus Fo, 6UW1; FbiA plus GDP, 6UW3; FbiA plus GDP plus Fo, 6UW5”.

B1: FbiA from M. smegmatis (enzyme)
chain: T1 sequence (A0QTG2 1-327)
notes: FbiA (phosphotransferase that makes dehydro-F420-0; homologous to CofD) from Mycobacterium smegmatis, gene MSMEG_1830; Copurifies with its product DH-F420-0 and some mature F420 (small molecules); also called MSMEG_1830; Mol. A; source: M. smegmatis mc2155, pMyNT vector, acetamide-induced, purified (Ni2+ agarose, SEC, TEV cleavage); not shown: His6, N-terminal, cleaved
A word on the stoichiometry N: it is a count of units in the complex or per binding partner. In the case of B1, the “stoichiometry N” value in data set [3] turned out to be 2.
